From PMC9098912, “Molecular basis for inhibiting human glucose transporters by exofacial inhibitors” (Nature Communications, 2022)
Entries after “also recorded” stand apart in the source; their conditions may differ.

Tests used:
[1] = test system: GLUT1; parameters: method as in Siebeneicher et al., 2016; details: SAR of Bayer compounds; ref Siebeneicher et al., 2016; cited from earlier work
[2] = molecular target: T1, WT GLUT3 (Homo sapiens, UniProt P11169, N43T); assay: Microscale thermophoresis (MST) binding assay; parameters: Figure 1e middle: MST binding curve, Mean / Figure 1e right: MST binding curve, Mean / Figure 2c: MST binding curve, Mean: unit not given here; details: for Figure 1e right: MST binding curve, Mean: GLUT3, log [phloretin]
T1 construct: His10 (N); made in house; host or cells: Sf9 insect cells (baculovirus)
T1 sequence (P11169 1-496 N43T): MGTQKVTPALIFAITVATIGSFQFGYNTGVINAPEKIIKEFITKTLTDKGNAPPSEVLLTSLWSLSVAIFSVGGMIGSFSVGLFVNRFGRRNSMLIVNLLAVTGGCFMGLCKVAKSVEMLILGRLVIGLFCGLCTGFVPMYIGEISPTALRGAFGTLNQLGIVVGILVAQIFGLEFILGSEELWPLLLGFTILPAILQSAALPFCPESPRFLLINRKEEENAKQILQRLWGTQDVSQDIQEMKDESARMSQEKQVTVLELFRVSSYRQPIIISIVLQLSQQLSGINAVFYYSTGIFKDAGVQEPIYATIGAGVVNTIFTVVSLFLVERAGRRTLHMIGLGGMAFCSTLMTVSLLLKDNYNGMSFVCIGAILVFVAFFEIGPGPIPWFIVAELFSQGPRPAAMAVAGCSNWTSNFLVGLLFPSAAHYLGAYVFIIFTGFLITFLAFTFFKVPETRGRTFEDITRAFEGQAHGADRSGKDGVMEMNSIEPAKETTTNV
Procedure: (§1) All mutants were generated by standard PCR-based strategy.
(§2) Inhibitors with serial dilutions were mixed with indicated protein. […] MST analyses were conducted on a Monolith NT. […] The MST data was analyzed by Monolith NT.115.

[3] = molecular target: T2, GLUT3exo (GLUT3 S64W and I305W) (Homo sapiens, UniProt P11169, I305W/N43T/S64W); assay: biochemical; type: binding; details: for Figure 1e right: MST binding curve, Mean: GLUT3 dTrp mutant, log [phloretin]
T2 construct: His10 (N); made in house; host or cells: Sf9 insect cells (baculovirus)
T2 sequence (P11169 whole entry N43T/S64W/I305W): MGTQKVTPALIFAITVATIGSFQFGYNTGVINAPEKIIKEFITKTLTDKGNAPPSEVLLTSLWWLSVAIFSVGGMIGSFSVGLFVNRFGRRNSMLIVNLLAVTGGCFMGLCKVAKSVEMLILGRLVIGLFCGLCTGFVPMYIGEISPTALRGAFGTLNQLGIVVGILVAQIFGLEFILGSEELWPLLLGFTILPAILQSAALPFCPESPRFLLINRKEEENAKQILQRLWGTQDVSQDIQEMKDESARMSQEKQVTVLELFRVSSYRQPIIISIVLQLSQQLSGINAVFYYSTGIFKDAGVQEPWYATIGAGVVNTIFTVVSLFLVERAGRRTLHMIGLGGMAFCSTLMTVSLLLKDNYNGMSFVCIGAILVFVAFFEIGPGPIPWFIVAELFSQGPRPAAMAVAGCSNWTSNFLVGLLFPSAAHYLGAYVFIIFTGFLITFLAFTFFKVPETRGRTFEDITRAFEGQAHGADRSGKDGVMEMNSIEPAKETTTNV
Procedure: Following the same principle for the engineering of XylE-WW, we introduced two Trp substitutions, S64W and I305W, on the extracellular segments of TM2 and TM8 of GLUT3, respectively. This variant will be referred to as GLUT3exo hereafter (Fig. 1a). The two bulky substituents were expected to trap GLUT3 in an outward-facing conformation.
as §1, §2

COc1ccccc1N1CCN(c2ncnc3c2cnn3-c2ccccc2)CC1 [cmpd 3]
GLUT1 potency [1]: increased the potency

FC(F)(F)Oc1ccccc1N1CCN(c2ncnc3c2cnn3-c2ccccc2)CC1 [cmpd 4]
GLUT1 potency [1]: completely inactive

FC(F)(F)c1ccccc1N1CCN(c2ncnc3c2cnn3-c2ccccc2)CC1 [cmpd 6]
GLUT1 potency [1]: completely inactive

COc1cccc(N2CCN(c3ncnc4c3cnn4-c3ccccc3)CC2)c1 [cmpd 8]
GLUT1 potency [1]: decreased the GLUT1 potency

COc1ccc(N2CCN(c3ncnc4c3cnn4-c3ccccc3)CC2)cc1 [cmpd 10]
GLUT1 potency [1]: decreased the GLUT1 potency

COc1ccccc1N1CCN(c2ncnc3c2cnn3-c2ccccc2)CC1C (stereo not shown) [cmpd 37]
GLUT1 potency [1]: tolerated

COc1ccccc1N1CC2(C1)CN(c1ncnc3c1cnn3-c1ccccc1)C2 [cmpd 41]
GLUT1 potency [1]: less potent

COc1ccccc1N1CCCN(c2ncnc3c2cnn3-c2ccccc2)CC1 [cmpd 42]
GLUT1 potency [1]: increased the potency

COc1ccccc1N1CCN(c2ncnc3c2cnn3-c2ccccc2F)CC1 [cmpd 49]
GLUT1 potency [1]: without significant loss of GLUT1 inhibition activity; also recorded: increased the potency

COc1ccccc1N1CCN(c2ncnc3c2cnn3-c2ccccn2)CC1 [cmpd 63]
GLUT1 potency [1]: significantly reduced the potency

COc1ccccc1N1CCN(c2ncnc3c2cnn3-c2ncccc2F)CC1 [cmpd 66]
GLUT1 potency [1]: significantly reduced the potency

COc1ccccc1N1CCN(c2ncnc3c2cnn3-c2ccccc2OC)CC1 [compound 50]
GLUT1 potency [1]: without significant loss of GLUT1 inhibition activity

COc1ccccc1N1CCN(c2ncnc3c2cnn3-c2ccccc2C)CC1 [compound 51]
GLUT1 potency [1]: without significant loss of GLUT1 inhibition activity

COc1ccccc1N1CCN(c2ncnc3c2cnn3-c2cccnc2)CC1 [compound 64]
GLUT1 potency [1]: significantly reduced the potency

COc1ccccc1N1CCN(c2ncnc3c2cnn3-c2ccncc2)CC1 [compound 65]
GLUT1 potency [1]: significantly reduced the potency

O=C(CCc1ccc(O)cc1)c1c(O)cc(O)cc1O [phloretin]
Figure 1e right: MST binding curve, Mean ([2]; M -3.30103): 99.1935 | Figure 1e right: MST binding curve, Mean ([2]; M -3.60206): 89.7967 | Figure 1e right: MST binding curve, Mean ([2]; M -3.90309): 81.0827 | Figure 1e right: MST binding curve, Mean ([2]; M -4.20412): 66.445 | Figure 1e right: MST binding curve, Mean ([2]; M -4.50515): 50.3655 | Figure 1e right: MST binding curve, Mean ([2]; M -4.80618): 41.2635 | Figure 1e right: MST binding curve, Mean ([2]; M -5.10721): 25.71 | Figure 1e right: MST binding curve, Mean ([2]; M -5.40824): 15.7731 | Figure 1e right: MST binding curve, Mean ([2]; M -5.70927): 5.8894 | Figure 1e right: MST binding curve, Mean ([2]; M -6.0103): 4.0557 | Figure 1e right: MST binding curve, Mean ([2]; M -6.31133): 2.0286 | Figure 1e right: MST binding curve, Mean ([2]; M -6.61236): 4.4085 | Figure 1e right: MST binding curve, Mean ([2]; M -6.91339): 1.9121 | Figure 1e right: MST binding curve, Mean ([2]; M -7.21442): -7.4814 | Figure 1e right: MST binding curve, Mean ([2]; M -7.51545): -2.4182 | Figure 1e right: MST binding curve, Mean ([2]; M -7.81648): 0.9156 | Kd ([2]; WT GLUT3): 26.3 ± 3.2 µM | Kd [3]: 15.5 ± 1.5 µM | Figure 1e right: MST binding curve, Mean ([3]; M -3.30103): 98.0572 | Figure 1e right: MST binding curve, Mean ([3]; M -3.60206): 93.8274 | Figure 1e right: MST binding curve, Mean ([3]; M -3.90309): 89.3364 | Figure 1e right: MST binding curve, Mean ([3]; M -4.20412): 79.2593 | Figure 1e right: MST binding curve, Mean ([3]; M -4.50515): 66.4804 | Figure 1e right: MST binding curve, Mean ([3]; M -4.80618): 46.5416 | Figure 1e right: MST binding curve, Mean ([3]; M -5.10721): 34.4965 | Figure 1e right: MST binding curve, Mean ([3]; M -5.40824): 22.7361 | Figure 1e right: MST binding curve, Mean ([3]; M -5.70927): 13.3872 | Figure 1e right: MST binding curve, Mean ([3]; M -6.0103): 7.2146 | Figure 1e right: MST binding curve, Mean ([3]; M -6.31133): 0.8877 | Figure 1e right: MST binding curve, Mean ([3]; M -6.61236): 6.4707 | Figure 1e right: MST binding curve, Mean ([3]; M -6.91339): 2.3532 | Figure 1e right: MST binding curve, Mean ([3]; M -7.21442): 1.6413 | Figure 1e right: MST binding curve, Mean ([3]; M -7.51545): 0.1149 | Figure 1e right: MST binding curve, Mean ([3]; M -7.81648): 2.456
